Experimental data as given in ChEMBL document CHEMBL4002605, “Synthesis, identification and in vitro biological evaluation of some novel quinoline incorporated 1,3-thiazinan-4-one derivatives” (Bioorg Med Chem Lett, 2017).
≈ marks a conversion by molar mass, not a printed value.

How the values were obtained:
[1] = system: Vibrio cholerae; assay: Antibacterial activity against Vibrio cholerae MTCC 3906 by broth microdilution assay method; type: functional
[2] = system: Mycobacterium tuberculosis; assay: Antitubercular activity against Mycobacterium tuberculosis H37Rv at 6 ug/mL; type: functional
[3] = system: Escherichia coli; assay: Antibacterial activity against Escherichia coli MTCC 443 by broth microdilution assay method; type: functional
[4] = system: Clostridium tetani; assay: Antibacterial activity against Clostridium tetani MTCC 449 by broth microdilution assay method; type: functional
[5] = system: Salmonella typhi; assay: Antibacterial activity against Salmonella typhi MTCC 98 by broth microdilution assay method; type: functional, Salmonella enterica subsp. enterica serovar Typhi; conditions: Salmonella enterica
[6] = system: Bacillus subtilis; assay: Antibacterial activity against Bacillus subtilis MTCC 441 by broth microdilution assay method; type: functional
[7] = system: Plasmodium falciparum; assay: Antimalarial activity against Plasmodium falciparum; type: functional
[8] = system: Streptococcus pneumoniae; assay: Antibacterial activity against Streptococcus pneumoniae MTCC 1936 by broth microdilution assay method; type: functional

| Compound | MIC [1] | inhibition at 6 µg/mL [2] | MIC [3] | MIC [4] | MIC [5] | MIC [6] | IC50 [7] | MIC [8] |
| --- | --- | --- | --- | --- | --- | --- | --- | --- |
| O=C1CCSC(c2cccc(Cl)c2)N1CCCNc1ccnc2cc(Cl)ccc12 (stereo unspecified) | 250 µg/mL (≈ 560 µM) | 55% | 250 µg/mL (≈ 560 µM) | 250 µg/mL (≈ 560 µM) | 250 µg/mL (≈ 560 µM) | 125 µg/mL (≈ 280 µM) | 1.62 µg/mL (≈ 3.63 µM) | 250 µg/mL (≈ 560 µM) |
| COc1cccc(C2SCCC(=O)N2NC(=O)c2cnc3c(C(F)(F)F)cccc3c2O)c1 (stereo unspecified) | 250 µg/mL (≈ 524 µM) | 65% | 250 µg/mL (≈ 524 µM) | 500 µg/mL (≈ 1050 µM) | 250 µg/mL (≈ 524 µM) | 250 µg/mL (≈ 524 µM) | 1.7 µg/mL (≈ 3.56 µM) | 500 µg/mL (≈ 1050 µM) |
| O=C1CCSC(c2cccc(Cl)c2)N1CCCCNc1ccnc2cc(Cl)ccc12 (stereo unspecified) | 125 µg/mL (≈ 271 µM) | 49% | 250 µg/mL (≈ 543 µM) | 250 µg/mL (≈ 543 µM) | 125 µg/mL (≈ 271 µM) | 250 µg/mL (≈ 543 µM) | 1.93 µg/mL (≈ 4.19 µM) | 250 µg/mL (≈ 543 µM) |
| O=C1CCSC(c2ccc(Br)cc2)N1CCNc1ccnc2cc(Cl)ccc12 (stereo unspecified) | 31.2 µg/mL (≈ 65.5 µM) | 95% | 125 µg/mL (≈ 262 µM) | 31.2 µg/mL (≈ 65.5 µM) | 100 µg/mL (≈ 210 µM) | 31.2 µg/mL (≈ 65.5 µM) | 0.045 µg/mL (≈ 0.0944 µM) | 62.5 µg/mL (≈ 131 µM) |
| Cc1ccc(C2SCCC(=O)N2CCCCNc2ccnc3cc(Cl)ccc23)cc1 (stereo unspecified) | 250 µg/mL (≈ 568 µM) | 40% | 500 µg/mL (≈ 1140 µM) | 250 µg/mL (≈ 568 µM) | 500 µg/mL (≈ 1140 µM) | 250 µg/mL (≈ 568 µM) | 2.33 µg/mL (≈ 5.3 µM) | 500 µg/mL (≈ 1140 µM) |
| COc1ccc(C2SCCC(=O)N2NC(=O)c2cnc3c(C(F)(F)F)cccc3c2O)cc1 (stereo unspecified) | 250 µg/mL (≈ 524 µM) | 70% | 250 µg/mL (≈ 524 µM) | 250 µg/mL (≈ 524 µM) | 125 µg/mL (≈ 262 µM) | 125 µg/mL (≈ 262 µM) | 1.45 µg/mL (≈ 3.04 µM) | 250 µg/mL (≈ 524 µM) |
| COc1cccc(C2SCCC(=O)N2CCNc2ccnc3cc(Cl)ccc23)c1 (stereo unspecified) | 500 µg/mL (≈ 1170 µM) | 58% | 250 µg/mL (≈ 584 µM) | 250 µg/mL (≈ 584 µM) | 500 µg/mL (≈ 1170 µM) | 62.5 µg/mL (≈ 146 µM) | 1.89 µg/mL (≈ 4.42 µM) | 250 µg/mL (≈ 584 µM) |
| CC1(C)S[C@@H]2[C@H](NC(=O)[C@H](N)c3ccccc3)C(=O)N2[C@H]1C(=O)O [AMPICILLIN] | 100 µg/mL (≈ 286 µM) | – | 100 µg/mL (≈ 286 µM) | 250 µg/mL (≈ 715 µM) | 100 µg/mL (≈ 286 µM) | 250 µg/mL (≈ 715 µM) | – | 100 µg/mL (≈ 286 µM) |
| Cc1ccc(C2SCCC(=O)N2NC(=O)c2cnc3c(C(F)(F)F)cccc3c2O)cc1 (stereo unspecified) | 500 µg/mL (≈ 1080 µM) | 60% | 500 µg/mL (≈ 1080 µM) | 250 µg/mL (≈ 542 µM) | 250 µg/mL (≈ 542 µM) | 250 µg/mL (≈ 542 µM) | 1.56 µg/mL (≈ 3.38 µM) | 500 µg/mL (≈ 1080 µM) |
| Cc1ccc(C2SCCC(=O)N2CCCNc2ccnc3cc(Cl)ccc23)cc1 (stereo unspecified) | 500 µg/mL (≈ 1170 µM) | 41% | 250 µg/mL (≈ 587 µM) | 500 µg/mL (≈ 1170 µM) | 500 µg/mL (≈ 1170 µM) | 125 µg/mL (≈ 293 µM) | 2.2 µg/mL (≈ 5.16 µM) | 250 µg/mL (≈ 587 µM) |
| O=C1CCSC(c2cccc(F)c2)N1CCNc1ccnc2cc(Cl)ccc12 (stereo unspecified) | 250 µg/mL (≈ 601 µM) | 66% | 62.5 µg/mL (≈ 150 µM) | 250 µg/mL (≈ 601 µM) | 250 µg/mL (≈ 601 µM) | 250 µg/mL (≈ 601 µM) | 1.05 µg/mL (≈ 2.52 µM) | 125 µg/mL (≈ 301 µM) |
| O=C1CCSC(c2ccccc2)N1CCNc1ccnc2cc(Cl)ccc12 (stereo unspecified) | 250 µg/mL (≈ 628 µM) | 50% | 500 µg/mL (≈ 1260 µM) | 250 µg/mL (≈ 628 µM) | 500 µg/mL (≈ 1260 µM) | 250 µg/mL (≈ 628 µM) | 2.7 µg/mL (≈ 6.79 µM) | 500 µg/mL (≈ 1260 µM) |
| COc1cccc(C2SCCC(=O)N2CCCNc2ccnc3cc(Cl)ccc23)c1 (stereo unspecified) | 500 µg/mL (≈ 1130 µM) | 51% | 250 µg/mL (≈ 566 µM) | 500 µg/mL (≈ 1130 µM) | 250 µg/mL (≈ 566 µM) | 250 µg/mL (≈ 566 µM) | 1.87 µg/mL (≈ 4.23 µM) | 250 µg/mL (≈ 566 µM) |
| O=C(NN1C(=O)CCSC1c1ccccc1)c1cnc2c(C(F)(F)F)cccc2c1O (stereo unspecified) | 500 µg/mL (≈ 1120 µM) | 55% | 500 µg/mL (≈ 1120 µM) | 500 µg/mL (≈ 1120 µM) | 500 µg/mL (≈ 1120 µM) | 250 µg/mL (≈ 559 µM) | 2.1 µg/mL (≈ 4.69 µM) | 500 µg/mL (≈ 1120 µM) |
| O=C1CCSC(c2cccc(F)c2)N1CCCCNc1ccnc2cc(Cl)ccc12 (stereo unspecified) | 125 µg/mL (≈ 282 µM) | 55% | 125 µg/mL (≈ 282 µM) | 125 µg/mL (≈ 282 µM) | 100 µg/mL (≈ 225 µM) | 250 µg/mL (≈ 563 µM) | 1.31 µg/mL (≈ 2.95 µM) | 250 µg/mL (≈ 563 µM) |
| O=C1CCSC(c2ccccc2)N1CCCNc1ccnc2cc(Cl)ccc12 (stereo unspecified) | 500 µg/mL (≈ 1210 µM) | 47% | 500 µg/mL (≈ 1210 µM) | 500 µg/mL (≈ 1210 µM) | 500 µg/mL (≈ 1210 µM) | 500 µg/mL (≈ 1210 µM) | 3.5 µg/mL (≈ 8.5 µM) | 500 µg/mL (≈ 1210 µM) |
| COc1ccc(C2SCCC(=O)N2CCNc2ccnc3cc(Cl)ccc23)cc1 (stereo unspecified) | 250 µg/mL (≈ 584 µM) | 60% | 125 µg/mL (≈ 292 µM) | 125 µg/mL (≈ 292 µM) | 250 µg/mL (≈ 584 µM) | 250 µg/mL (≈ 584 µM) | 0.62 µg/mL (≈ 1.45 µM) | 250 µg/mL (≈ 584 µM) |
| CCn1cc(C(=O)O)c(=O)c2cc(F)c(N3CCNCC3)cc21 [NORFLOXACIN] | 10 µg/mL (≈ 31.3 µM) | – | 10 µg/mL (≈ 31.3 µM) | 50 µg/mL (≈ 157 µM) | 10 µg/mL (≈ 31.3 µM) | 100 µg/mL (≈ 313 µM) | – | 10 µg/mL (≈ 31.3 µM) |
| O=C(O)c1cn(C2CC2)c2cc(N3CCNCC3)c(F)cc2c1=O [CIPROFLOXACIN] | 25 µg/mL (≈ 75.4 µM) | – | 25 µg/mL (≈ 75.4 µM) | – | 25 µg/mL (≈ 75.4 µM) | – | – | 25 µg/mL (≈ 75.4 µM) |
| C=C[C@H]1CN2CC[C@H]1C[C@H]2[C@H](O)c1ccnc2ccc(OC)cc12 [QUININE] | – | – | – | – | – | – | 0.271 µg/mL (≈ 0.835 µM) | – |
| CO[C@H]1/C=C/O[C@@]2(C)Oc3c(C)c(O)c4c(O)c(c(/C=N/N5CCN(C)CC5)c(O)c4c3C2=O)NC(=O)/C(C)=C\C=C\[C@H](C)[C@H](O)[C@@H](C)[C@@H](O)[C@@H](C)[C@H](OC(C)=O)[C@@H]1C [RIFAMPIN] | – | 98% | – | – | – | – | – | – |
